Usually EC50 stands for the midpoint of the concentration-response curve.

Read-outs that look alike come from different tables or passages of the source.

Here are results for two compounds from publication PMC10079235 (PLOS Neglected Tropical Diseases, 2023).

One series deals with HCT-8 cells. The series is described as follows: MTS cytotoxicity assay with MDR1 inhibitor elacridar, several HCT-8 derived cell lines. Conditions: 300 nM, NC, MDR1, NC(PTX), NC(NTZ). How it is done: If the increase of tolerance to a specified inhibitor in host cells was truly mediated by MDR1, specific inhibition of MDR1 would restore the sensitivity of the host cells to the inhibitor (as indicated by TC50). Additionally, inhibition of MDR1 would not affect the anti-cryptosporidial efficacy (EC50) if the drug that acted only on the parasite target, or partially affect the efficacy (EC50) if the drug that also acted on host cell target. This notion was tested using elacridar, a third generation of MDR1 inhibitor [18, 23–25]. […] We then examined the effect of elacridar on the cytotoxicity and anti-cryptosporidial efficacies of the six inhibitors in the range of TC50 or EC50 concentrations.
Host cell drug tolerance to specified inhibitors was evaluated by 3-(4,5-dimethylthiazol-2-yl)-5-(3-carboxymethoxyphenyl)-2-(4-sulfophenyl)-2H-tetrazolium (MTS) assay. […] Optical density at 490 nm (OD490) was measured using a Synergy LX multi-mode reader (BioTek, Winooski, VT). Drug tolerance was indicated by half-maximal cytotoxic concentrations (TC50 values) calculated by nonlinear regression using 4PL model. Selectivity index (SI) for each compound was determined by the ratio between TC50 and EC50 values (SI = TC50/EC50).
(Tetrazolium assays rely on reduction of a dye to a coloured formazan, in cell work by metabolically active cells.)

For a further series, the system named is MDR1. More on the design: method as in PMID 34648615. Conditions: 300 nM ref 15; cited from earlier work.
The subject of another series is Cryptosporidium parvum. Description: Anti-cryptosporidial efficacy assay (44-h infection/qRT-PCR). The settings on record: for EC50: Cryptosporidium parvum; for On-target (Eon) rate at EC50: Eq 2; for Eoff, proportion of off-parasite-target effect / Eon, proportion of on-parasite-target effect: MDR1(PTX) vs. NC model, Eq 3 and 4. (Quantitative PCR measures a nucleic acid by following its amplification.)

Another series concerns HCT-8/NC cells. The series is described as follows: MTS cytotoxicity (drug tolerance) assay. The settings on record: no drug selection.
A further series deals with HCT-8/WT(NTZ) cells. Description: MTS cytotoxicity (drug tolerance) assay. The settings on record: WT(NTZ) cells, after selection by NTZ. The protocol: (§1) Host cell drug tolerance to specified inhibitors was evaluated by 3-(4,5-dimethylthiazol-2-yl)-5-(3-carboxymethoxyphenyl)-2-(4-sulfophenyl)-2H-tetrazolium (MTS) assay. WT and transgenic host cells were seeded in 96-well plates (10,000 cells/well) and cultured for 24 h, followed by the addition of specified compounds at serially diluted concentrations and continued culture for 41 h. After 3 washes with serum-free medium, MTS solution (Saint-Bio, Shanghai, China) was added into the plates (20 μL/well) and incubated at 37°C for 2 h. Optical density at 490 nm (OD490) was measured using a Synergy LX multi-mode reader (BioTek, Winooski, VT). Drug tolerance was indicated by half-maximal cytotoxic concentrations (TC50 values) calculated by nonlinear regression using 4PL model. Selectivity index (SI) for each compound was determined by the ratio between TC50 and EC50 values (SI = TC50/EC50).
(§2) Surviving cells were allowed to recover in drug-free medium for 3–5 d to near confluence (round 1). The selection/recovery cycle were repeated once (round 2). […] Finally, all cells were cultured at the final selection concentrations of PTX or NTZ for ≥7 d, followed by culture in drug-free medium for 14 d. At this time point, cells were used for cytotoxicity and efficacy assays or cryopreserved in a liquid nitrogen tank. The resulting cell lines after PTX or NTZ selection were designated as WT(PTX), NC(PTX) and MDR1(PTX), or WT(NTZ), NC(NTZ) and MDR1(NTZ), respectively (Tables 1 and S2).

For a further series, the system named is HCT-8/NC(NTZ) cells. Description: MTS cytotoxicity (drug tolerance) assay. Conditions: NC(NTZ) cells, after selection by NTZ. How it is done: as §1, §2
The subject of another series is HCT-8/WT cells. The series is described as follows: MTS cytotoxicity (drug tolerance) assay. Conditions: WT cells, no drug selection; MTS assay. The protocol: as §1
In the next series the test system is HCT-8/WT(PTX) cells. Description: MTS cytotoxicity (drug tolerance) assay. The settings on record: WT(PTX) cells, after selection by PTX. How it is done: as §1
(§3) Surviving cells were allowed to recover in drug-free medium for 3–5 d to near confluence (round 1). The selection/recovery cycle were repeated once (round 2). […] The resulting cell lines after PTX or NTZ selection were designated as WT(PTX), NC(PTX) and MDR1(PTX), or WT(NTZ), NC(NTZ) and MDR1(NTZ), respectively (Tables 1 and S2).

The next series deals with HCT-8/NC(PTX) cells. Description: MTS cytotoxicity (drug tolerance) assay. The settings on record: NC(PTX) cells, after selection by PTX. The protocol: as §1, §3
The next series relates to HCT-8/MDR1(NTZ) cells. The series is described as follows: MTS cytotoxicity (drug tolerance) assay. Conditions: human, 41 h. How it is done: as §1, §3
The test system of a further series is HCT-8/MDR1(PTX) cells. The protocol:
as §1, §3

A further series concerns HCT-8/MDR1 cells. Conditions: human, 41 h.

With `COc1cc2c(cc1OC)CN(CCc1ccc(NC(=O)c3cccc4c(=O)c5cccc(OC)c5[nH]c34)cc1)CC2` [elacridar], in the series with HCT-8 cells, the “Effect on growth of host cells” value is reported as “no or little effect”. Moreover, in the series on MDR1, the “Inhibition on the activity of MDR1” value is “strong inhibition”. Also, the “Effect on growth of C. parvum” value in the series on Cryptosporidium parvum (300 nM, cultured with NC, MDR1(PTX) and MDR1(NTZ) cells) is reported as “no or little effect”.
For the compound `CC[C@]1(O)C[C@H]2CN(CCc3c([nH]c4ccccc34)[C@@](C(=O)OC)(c3cc4c(cc3OC)N(C=O)[C@H]3[C@@](O)(C(=O)OC)[C@H](OC(C)=O)[C@]5(CC)C=CCN6CC[C@]43[C@@H]65)C2)C1` [Vincristine, Vincristine sulphate], the TC50 with HCT-8/NC cells stood at 7.15 µM; in the series on HCT-8/WT(NTZ) cells it was 7.04 µM; with HCT-8/NC(NTZ) cells it was 6.87 µM; in the series with HCT-8/WT cells it was 6.72 µM; with HCT-8/WT(PTX) cells, 6.96 µM; with HCT-8/NC(PTX) cells it was 7.29 µM. Moreover, the TC50 in the series with HCT-8/MDR1(NTZ) cells was found to be 12.38 µM; in the series with HCT-8/MDR1(PTX) cells (MDR1(PTX) cells, after selection by PTX), 21.51 µM; in the series with HCT-8/MDR1 cells, 12.61 µM. Further, the 50% effective concentration (EC50) in the series on Cryptosporidium parvum (MDR1, read-out: Antiparasitic efficacy (EC50), C. parvum cultured in MDR1(PTX) host cells) was 2.77 µM; in the series with Cryptosporidium parvum (read-out: Antiparasitic efficacy (EC50), C. parvum cultured in NC host cells), 1.58 µM; with Cryptosporidium parvum (read-out: Antiparasitic efficacy (EC50), C. parvum cultured in WT host cells) it was 1.64 µM. The “On-target (Eon) rate at EC50” value with Cryptosporidium parvum (MDR1(PTX) cell model) came out at 62.5%; in the series on Cryptosporidium parvum (MDR1(PTX) cell model, listed as VCT) it was 62.5%. Also, in the series on Cryptosporidium parvum (MDR1(PTX) cell model, from Pct changes of EC50 and TC50 (Eq 1)), the “Off-target (Eoff) rate at EC50” value is given as 37.5%. Besides, the “Action on parasite target (on-target) conclusion” value with Cryptosporidium parvum (MDR1-transgenic host cell model) is on record as “partially on-target”. In addition, the “Eoff, proportion of off-parasite-target effect” value in the series on Cryptosporidium parvum (at EC10) came to 38.10%; in the series with Cryptosporidium parvum (at EC20), 38.00%; in the series with Cryptosporidium parvum (at EC30) it was 37.90%; in the series with Cryptosporidium parvum (at EC40), 37.80%; in the series on Cryptosporidium parvum (at EC50), 37.7%; with Cryptosporidium parvum (at EC60), 37.60%. The figures for the “Eoff, proportion of off-parasite-target effect” value with Cryptosporidium parvum (at EC70), in the series with Cryptosporidium parvum (at EC80) and in the series with Cryptosporidium parvum (at EC90) were 37.50%, 37.30% and 37.10%, respectively. The “Eon, proportion of on-parasite-target effect” value in the series with Cryptosporidium parvum (at EC10) was found to be 61.90%; in the series with Cryptosporidium parvum (at EC10, listed as VCT), 61.9%; in the series with Cryptosporidium parvum (at EC20), 62.00%; in the series with Cryptosporidium parvum (at EC30), 62.10%; with Cryptosporidium parvum (at EC40), 62.20%; in the series with Cryptosporidium parvum (at EC50), 62.3%. For the same compound, the “Eon, proportion of on-parasite-target effect” value is on record as 62.40% in the series with Cryptosporidium parvum (at EC60); 62.50% with Cryptosporidium parvum (at EC70); 62.70% in the series on Cryptosporidium parvum (at EC80); 62.90% in the series with Cryptosporidium parvum (at EC90); 62.9% with Cryptosporidium parvum (at EC90, listed as VCT). Also, in the series with HCT-8/MDR1(PTX) cells (MDR1(PTX) vs NC cells), the “Pct change of TC50 (vs NC)” value worked out at 200.8%.
